We go through 25 molecules from ChEMBL document CHEMBL5233262, “Anti-inflammatory activity of naturally occuring diarylheptanoids - A review” (Bioorg Med Chem, 2021).

In brackets after ≈: the same amount, converted by molar mass.

Assay [1] deals with RAW264.7. Briefly: Antiinflammatory activity in mouse RAW264.7 cells assessed as inhibition of LPS-induced NO production preincubated for 0.5 hrs followed by LPS stimulation and measured after 24 hrs by Griess reagent based analysis. The class given is functional, cell-based.
The test system of assay [2] is RAW264.7. Briefly: Antiinflammatory activity in mouse RAW264.7 cells assessed as inhibition of LPS-induced NO production for 24 hrs by Griess assay. It is filed as functional, cell-based. The note with it: RAW264.7, 24 h.
Assay [3] has as its system RAW264.7. Briefly: Antiinflammatory activity in mouse RAW264.7 cells assessed as inhibition of LPS-induced NO production incubated for 18 hrs by Griess method. It is filed as functional, cell-based. To be noted: RAW264.7, 18 h.
The test system of assay [4] is RAW264.7. Briefly: Antiinflammatory activity in mouse RAW264.7 cells assessed as inhibition of LPS-induced NO production at 30 uM preincubated for 0.5 hrs followed by LPS stimulation and measured after 24 hrs by Griess reagent based analysis. The class given is functional. To be noted: time 24.5 hrs.
A further assay has as its system Rattus norvegicus. The assay is described as follows: Antiinflammatory activity in rat model of carrageenan-induced paw edema assessed as reduction in paw thickness at 10 mg/kg,ip and measured after 4 hrs. Also noted: scale not given: the % may be the effect or the level left. It is filed as functional.
Assay [5] can be described thus: Antioxidant activity assessed as […] radical scavenging activity at 50 uM. The class given is functional.
Another assay has as its system J774.1. Briefly: Antiinflammatory activity in mouse J774.1 cells assessed as inhibition of LPS-induced NO production incubated for 48 hrs by Griess reagent based analysis. It is filed as functional, cell-based.
Assay [6] concerns Mus musculus. The assay is described as follows: Antiinflammatory activity in TPA-induced ear edema ICR mouse model assessed as inhibition of ear inflammation at 1 ug, TOP for 30 mins followed by TPA addition and measured after 6 hrs. The class given is functional. To be noted: dose 1 µg, time 390 min, 6.5 h.
In assay [7] the test system is RAW264.7. Briefly: Antiinflammatory activity in mouse RAW264.7 cells assessed as inhibition of LPS-induced NO production preincubated for 1 hrs followed by LPS stimulation and measured after 24 hrs by Griess reagent based spectrophotometrical method. It is filed as functional, cell-based.
A short description of assay [8]: Antioxidant activity assessed as ABTS radical scavenging activity measured after 6 mins. It is filed as functional.
Assay [9] concerns Mus musculus. Briefly: Antiinflammatory activity in ICR mouse model of TPA-induced ear edema assessed as inhibition of ear inflammation at 1 mg,TOP for 30 mins followed by TPA addition and measured after 6 hrs. To be noted: time 390 min, 6.5 h. It is filed as functional.
A further assay has as its system Zingiber officinale. Briefly: Inhibition of prostaglandin biosynthesis in ginger. It is filed as functional, organism-based.
A short description of assay [10]: Antioxidant activity assessed as nitroblue tetrazolium superoxide radical scavenging activity incubated for 10 mins by spectrophotometric analysis. The class given is functional.
In assay [11] the test system is RAW264.7. Briefly: Antiinflammatory activity against mouse RAW264.7 cells assessed as inhibition of IFN-gamma and LPS-induced COX2 production preincubated for 2 hrs followed by IFN-gamma and LPS stimulation and measured after 16 hrs by spectrophotometric analysis. The class given is functional, cell-based.
The test system of assay [12] is RAW264.7. The assay is described as follows: Antiinflammatory activity in mouse RAW264.7 cells assessed as inhibition of IFN-gamma and LPS-induced NO production incubated for 24 hrs by Griess assay. It is filed as functional, cell-based. The note with it: RAW264.7, 24 h.
A short description of assay [13]: Antioxidant activity assessed as DPPH radical scavenging activity incubated for 30 mins by spectrophotometric analysis. It is filed as functional.
For assay [14], the system named is RAW264.7. The assay is described as follows: Antiinflammatory activity in mouse RAW264.7 cells assessed as inhibition of LPS-induced NO production preincubated for 1 hrs followed by LPS stimulation and measured after 24 hrs by Griess reagent based analysis. The class given is functional, cell-based.
In assay [15] the test system is RAW264.7. Briefly: Antiinflammatory activity in mouse RAW264.7 cells assessed as inhibition of LPS-induced NO production incubated for 20 hrs by Griess method. The class given is functional, cell-based. The note with it: RAW264.7, 20 h.

Consider `Oc1ccc(CCCC[C@H](CCc2ccc(O)cc2)O[C@@H]2OC[C@@H](O)[C@H](O)[C@H]2O)cc1`, for which the half-inhibitory concentration (IC50) in the assay with RAW264.7 [1] is 63 µM. As for `O=C(CCc1ccc(O)c(O)c1)C[C@H](CCc1ccc(O)c(O)c1)O[C@H]1OC[C@H](O)[C@@H](O)[C@@H]1OC(=O)/C=C/c1ccccc1`, in the assay on RAW264.7 [1], the concentration for half-maximal inhibition (IC50) was 10.5 µM. For `Oc1ccc(CC[C@H]2C[C@@H](O)C[C@@H](c3ccc(O)c(O)c3)O2)cc1`, the concentration for half-maximal inhibition (IC50) with RAW264.7 [2] worked out at 17.3 µM. For the molecule `Oc1ccc(CCCC[C@H](O)CCc2ccc(O)cc2)cc1`, in the assay on RAW264.7 [3], the IC50 is above 25 µM. Consider `OC[C@H]1O[C@@H](O[C@H](CCCCc2ccc(O)cc2)CCc2ccc(O)c(O)c2)[C@H](O)[C@@H](O)[C@@H]1O`, for which the inhibition at 30 µM with RAW264.7 [4] is 37%. With `COc1c2cc(c(O[C@@H]3O[C@H](CO)[C@@H](O)[C@H](O)[C@H]3O)c1OC)CCCCC(=O)CCc1ccc(O)c-2c1`, the figures for the Activity (with Rattus norvegicus; in assay [5]) were 46.9% and 41%, respectively. `COc1cc(O)c([C@@H](/C=C/C[C@@H](O)CCc2ccc(O)cc2)c2ccc(O)cc2)c2oc(-c3ccc(O)cc3)cc(=O)c12` (stereo in doubt; 113): the IC50 in the assay on J774.1 (j774.1) stood at 83 µM. Turning to `CO[C@@H](CCc1ccccc1)CC(=O)CCc1ccccc1`, in the assay on Mus musculus [6], the ID50 is 2.7 µmol.

Take `COc1cc([C@@H]2O[C@H]([C@@H](O)Cc3ccc(O)cc3)C[C@@H](O)[C@@H]2O)ccc1O`: the half-maximal inhibitory concentration (IC50) with RAW264.7 [2] was above 100 µM. Regarding `COc1c2cc(c(O)c1OC)CCCC[C@@H](O)CCc1ccc(O)c-2c1`, the concentration for half-maximal inhibition (IC50) with RAW264.7 [7] was found to be 7.5 µM; in assay [8], 22.3 µM. On to `COc1cc2cc(c1O)-c1cc(ccc1O)CCC(=O)CCCC2` [MYRICANANIN C], for which the values for the IC50 (with RAW264.7 [7]; in assay [8]) were 13 µM and 12 µM, respectively. In the case of `Oc1ccc2cc1Oc1ccc(cc1)CCCC[C@@H](O)CC2`, the ID50 in the assay on Mus musculus [9] turned out to be 0.26 mg. Regarding `COc1cc(CCC(=O)CC(=O)CCc2ccccc2)ccc1O`, 4.4 µM corresponded to half-maximal inhibition in the assay on Zingiber officinale (IC50). For `Oc1ccc(CCCC[C@@H](O)CCc2ccc(O)c(O)c2)cc1O`, the concentration for half-maximal inhibition (IC50) in assay [10] was found to be 11.6 µM; in the assay with RAW264.7 [1], 20 µM; with RAW264.7 [11], 45.3 µg/mL (≈ 136 µM); in the assay on RAW264.7 [12], 28.4 µg/mL (≈ 85.4 µM); in [13] it was 23.3 µM; with RAW264.7 [14], 10.2 µM. Also, the IC50 in the assay with RAW264.7 [15] came to 5.2 µM. With `OC[C@H]1O[C@@H](O[C@@H]2C[C@@H](CCc3ccc(O)cc3)O[C@@H](c3ccc(O)c(O)c3)C2)[C@H](O)[C@@H](O)[C@@H]1O`, the IC50 in the assay with RAW264.7 [2] stood at 79.9 µM. Consider `CO[C@@H](CCc1ccc(O)cc1)CC(=O)CCc1ccc(O)cc1`, for which the IC50 in the assay on RAW264.7 [1] is 15.2 µM. As for `O=C(CCCCc1ccc(O)cc1)CCc1ccc(O)c(O)c1`, in the assay with RAW264.7 [3], the IC50 amounted to 13.2 µM. On to `OC[C@@]1(O)CO[C@@H](OC[C@H]2O[C@@H](O[C@@H]3CCCCc4ccc(O)c(c4)Oc4ccc(cc4)CC3)[C@H](O)[C@@H](O)[C@@H]2O)[C@@H]1O`, for which the ID50 with Mus musculus [9] is reported as 0.81 mg.

Regarding `O=C(CCc1ccc(O)c(O)c1)C[C@H](CCc1ccc(O)cc1)O[C@@H]1OC[C@@H](O)[C@H](O)[C@H]1O`, in the assay on RAW264.7 [1], the IC50 was found to be 8.1 µM. Turning to `Oc1ccc(CC[C@@H]2C[C@@H](O)C[C@H](c3ccc(O)c(O)c3)O2)cc1`, the IC50 with RAW264.7 [2] turned out to be 27.9 µM.

Turning to `COc1cc(C(O)C(O)C(O)CC(O)C(O)Cc2ccc(O)cc2)ccc1O` (stereo not given), the IC50 in the assay on RAW264.7 [2] came out at 46.7 µM. Consider `COc1cc(O)c([C@@H]2C[C@H](CCc3ccc(O)cc3)O[C@@H](c3ccc(O)cc3)C2)c(O)c1C(=O)/C=C/c1ccc(O)cc1` [EPICALYXIN F], for which the IC50 in the assay on J774.1 (Mus musculus, J774.1, 48 h) was 51 µM. With `O=C1CCc2ccc(cc2)Oc2cc(ccc2O)CC[C@@H](O[C@@H]2O[C@H](CO)[C@@H](O)[C@H](O)[C@H]2O)C1`, the ID50 with Mus musculus [9] is 0.49 mg. As for `COc1c2cc(c(O[C@@H]3O[C@H](CO)[C@@H](O)[C@H](O)[C@H]3O)c1O)CCCCC(=O)CCc1ccc(OC(C)=O)c-2c1`, the Activity came to 46.3% in the assay on Rattus norvegicus and 41% in assay [5]. Turning to `COc1cc(O)c([C@H](/C=C/C[C@@H](O)CCc2ccc(O)cc2)c2ccc(O)cc2)c(O)c1C(=O)[C@@H]1[C@H](/C=C/c2ccc(O)cc2)C[C@H](CCc2ccc(O)cc2)O[C@H]1c1ccc(O)cc1`, in the assay on J774.1 (Mus musculus, J774.1, 48 h), the IC50 is 36 µM.
